Data on two compounds can be found in ChEMBL document CHEMBL5665443, “Enzyme Inhibitor Single Concentration assay results for EUbOPEN Chemogenomics Library” (2024).

Common to all, as to conditions: Compound Concentration 10.0 uM, Hit No
Test [1] has as its target Uracil-DNA glycosylase (Homo sapiens) (UniProt P13051).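 Also: UNG excision on a quenched double-stranded DNA oligo probe, with APE1 added for strand incision and turnover, read as fluorescence at 594 nm as strands separate.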
Description: Inhibition of UNG by quantifying inhibition of UNG-mediated cleavage and dissociation of quenched duplex DNA oligonucleotides, measured as fluorescence at 594 nm. To generate a functional strand incision and increase turn-over this assay is coupled to APE1.
For test [2], the target named is T1, Endonuclease 8-like 2 (Homo sapiens) (UniProt Q969S2).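 Also: fluorescence at 594 nm reports NEIL2 cutting and release of a quenched double-stranded DNA oligo substrate, reduced signal read as inhibition.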
T1 sequence (whole entry): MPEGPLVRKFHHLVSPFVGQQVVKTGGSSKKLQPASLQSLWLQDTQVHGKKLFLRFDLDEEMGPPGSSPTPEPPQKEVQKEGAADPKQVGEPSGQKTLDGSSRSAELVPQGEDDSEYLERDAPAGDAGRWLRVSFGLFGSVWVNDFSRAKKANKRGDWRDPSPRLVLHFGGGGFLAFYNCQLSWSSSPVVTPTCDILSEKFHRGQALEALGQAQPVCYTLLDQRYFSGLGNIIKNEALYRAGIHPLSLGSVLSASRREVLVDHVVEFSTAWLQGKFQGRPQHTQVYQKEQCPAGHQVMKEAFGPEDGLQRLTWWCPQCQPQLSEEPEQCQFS
Description: Inhibition of NEIL2 by quantifying inhibition of NEIL2-mediated cleavage and dissociation of quenched duplex DNA oligonucleotides, measured as fluorescence at 594 nm.

In test [3] the target is T2, Endonuclease III-like protein 1 (Homo sapiens) (UniProt P78549).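 Also: enzyme assay tracking NTHL1 cutting and release of a quenched double-stranded DNA oligo substrate, read as fluorescence at 594 nm.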
T2 sequence (whole entry): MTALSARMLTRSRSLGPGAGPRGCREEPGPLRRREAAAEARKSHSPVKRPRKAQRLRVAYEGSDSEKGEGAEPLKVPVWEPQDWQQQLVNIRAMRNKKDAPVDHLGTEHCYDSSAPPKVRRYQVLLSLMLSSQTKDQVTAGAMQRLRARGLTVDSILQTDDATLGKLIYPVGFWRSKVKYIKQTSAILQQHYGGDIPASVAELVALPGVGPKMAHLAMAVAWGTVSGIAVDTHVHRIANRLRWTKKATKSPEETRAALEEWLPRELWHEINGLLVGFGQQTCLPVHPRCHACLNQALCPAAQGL
Description: Inhibition of NTHL1 by quantifying inhibition of NTHL1-mediated cleavage and dissociation of quenched duplex DNA oligonucleotides, measured as fluorescence at 594 nm.

The target in test [4] is T3, Adenine DNA glycosylase (Homo sapiens) (UniProt Q9UIF7).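 Also: human MUTYH activity read as 594 nm fluorescence from cleavage and release of a quenched DNA duplex, coupled with APE1 for strand incision, lower signal meaning inhibition.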
T3 sequence (whole entry): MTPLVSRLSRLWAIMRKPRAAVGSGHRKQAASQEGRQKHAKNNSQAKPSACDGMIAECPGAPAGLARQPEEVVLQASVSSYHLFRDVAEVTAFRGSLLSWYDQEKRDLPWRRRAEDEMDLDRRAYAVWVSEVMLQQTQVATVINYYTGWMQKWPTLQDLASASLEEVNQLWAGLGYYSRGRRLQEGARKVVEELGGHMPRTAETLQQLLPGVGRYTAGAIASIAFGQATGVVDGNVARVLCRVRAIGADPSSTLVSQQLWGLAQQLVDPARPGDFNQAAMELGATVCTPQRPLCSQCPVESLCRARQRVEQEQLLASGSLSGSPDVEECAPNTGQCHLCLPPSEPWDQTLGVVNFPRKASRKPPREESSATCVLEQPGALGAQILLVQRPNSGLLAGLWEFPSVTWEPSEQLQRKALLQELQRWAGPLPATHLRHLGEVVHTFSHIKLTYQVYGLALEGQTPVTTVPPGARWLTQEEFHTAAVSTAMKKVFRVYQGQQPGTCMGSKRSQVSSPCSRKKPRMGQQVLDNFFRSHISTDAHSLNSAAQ
Description: Inhibition of MUTYH by quantifying inhibition of MUTYH-mediated cleavage and dissociation of quenched duplex DNA oligonucleotides, measured as fluorescence at 594 nm. To generate a functional strand incision and increase turn-over this assay is coupled to APE1.

The target of test [5] is DNA-3-methyladenine glycosylase (Homo sapiens) (UniProt P29372).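 Also: enzyme assay where MPG cuts a quenched duplex DNA oligonucleotide probe, paired with APE1 for strand incision and turnover, read as fluorescence at 594 nm.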
Sequence of DNA-3-methyladenine glycosylase (Homo sapiens) (P29372 whole entry): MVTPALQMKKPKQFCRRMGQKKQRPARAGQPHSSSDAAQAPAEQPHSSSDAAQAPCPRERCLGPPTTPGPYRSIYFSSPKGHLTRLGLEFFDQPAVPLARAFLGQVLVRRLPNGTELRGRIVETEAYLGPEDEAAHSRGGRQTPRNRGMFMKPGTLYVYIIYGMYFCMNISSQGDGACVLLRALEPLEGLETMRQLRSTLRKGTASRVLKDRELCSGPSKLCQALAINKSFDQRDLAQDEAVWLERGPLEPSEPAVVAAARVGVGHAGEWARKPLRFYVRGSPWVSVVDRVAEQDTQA
Description: Inhibition of MPG by quantifying inhibition of MPG-mediated cleavage and dissociation of quenched duplex DNA oligonucleotides, measured as fluorescence at 594 nm. To generate a functional strand incision and increase turn-over this assay is coupled to APE1.
For test [6], the target named is G/T mismatch-specific thymine DNA glycosylase (Homo sapiens) (UniProt Q13569).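 Also: human TDG cleavage of quenched duplex DNA oligonucleotides coupled to APE1, strand release read as fluorescence at 594 nm, inhibition of TDG activity.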
Sequence of G/T mismatch-specific thymine DNA glycosylase (Homo sapiens) (Q13569 whole entry, the tested form may be a part): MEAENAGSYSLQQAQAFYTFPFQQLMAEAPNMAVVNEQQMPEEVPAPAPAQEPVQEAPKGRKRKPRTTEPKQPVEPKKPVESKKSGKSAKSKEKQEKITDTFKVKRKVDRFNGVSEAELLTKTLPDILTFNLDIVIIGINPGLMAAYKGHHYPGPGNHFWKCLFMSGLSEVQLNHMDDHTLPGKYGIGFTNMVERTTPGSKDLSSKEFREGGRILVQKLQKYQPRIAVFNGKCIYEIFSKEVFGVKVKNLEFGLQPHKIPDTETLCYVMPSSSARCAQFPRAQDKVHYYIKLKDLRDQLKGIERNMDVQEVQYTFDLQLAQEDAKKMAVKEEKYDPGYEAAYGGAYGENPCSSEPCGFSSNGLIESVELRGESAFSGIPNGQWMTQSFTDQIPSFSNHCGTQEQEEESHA
Description: Inhibition of TDG by quantifying inhibition of TDG-mediated cleavage and dissociation of quenched duplex DNA oligonucleotides, measured as fluorescence at 594 nm. To generate a functional strand incision and increase turn-over this assay is coupled to APE1.
Test [7] addresses Methyl-CpG-binding domain protein 4 (Homo sapiens) (UniProt O95243).
Description: Inhibition of MBD4 by quantifying inhibition of MBD4-mediated cleavage and dissociation of quenched duplex DNA oligonucleotides, measured as fluorescence at 594 nm. To generate a functional strand incision and increase turn-over this assay is coupled to APE1.
The target of test [8] is N-glycosylase/DNA lyase (Homo sapiens) (UniProt O15527).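 Also: OGG1 cleavage of a quenched duplex DNA oligonucleotide, coupled to APE1 for strand incision, read as fluorescence at 594 nm.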
Sequence of N-glycosylase/DNA lyase (Homo sapiens) (O15527 whole entry): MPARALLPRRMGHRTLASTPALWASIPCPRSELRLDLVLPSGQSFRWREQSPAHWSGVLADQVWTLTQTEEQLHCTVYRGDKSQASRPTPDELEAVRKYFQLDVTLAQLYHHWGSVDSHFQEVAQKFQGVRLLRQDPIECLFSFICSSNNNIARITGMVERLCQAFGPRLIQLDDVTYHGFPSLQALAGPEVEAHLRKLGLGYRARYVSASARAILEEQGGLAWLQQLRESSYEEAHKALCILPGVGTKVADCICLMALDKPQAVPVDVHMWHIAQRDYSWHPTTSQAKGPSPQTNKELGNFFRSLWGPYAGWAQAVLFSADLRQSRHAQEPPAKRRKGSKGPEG
Description: Inhibition of OGG1 by quantifying inhibition of OGG1-mediated cleavage and dissociation of quenched duplex DNA oligonucleotides, measured as fluorescence at 594 nm. To generate a functional strand incision and increase turn-over this assay is coupled to APE1.
In test [9] the target is Endonuclease 8-like 1 (Homo sapiens) (UniProt Q96FI4).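 Also: fluorescence at 594 nm from quenched duplex DNA oligonucleotides released by NEIL1 cleavage and strand separation, reported as reduction of this enzyme activity.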
Sequence of Endonuclease 8-like 1 (Homo sapiens) (Q96FI4 whole entry): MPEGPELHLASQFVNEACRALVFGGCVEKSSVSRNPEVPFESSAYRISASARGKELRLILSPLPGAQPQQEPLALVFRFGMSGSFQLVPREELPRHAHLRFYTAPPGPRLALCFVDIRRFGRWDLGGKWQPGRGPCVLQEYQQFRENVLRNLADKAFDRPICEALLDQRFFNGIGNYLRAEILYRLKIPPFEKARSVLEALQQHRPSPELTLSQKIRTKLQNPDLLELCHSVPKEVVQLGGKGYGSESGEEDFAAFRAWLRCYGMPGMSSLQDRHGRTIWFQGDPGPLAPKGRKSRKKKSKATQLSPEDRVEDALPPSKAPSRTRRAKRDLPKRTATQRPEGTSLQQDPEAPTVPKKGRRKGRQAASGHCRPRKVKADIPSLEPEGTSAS
Description: Inhibition of NEIL1 by quantifying inhibition of NEIL1-mediated cleavage and dissociation of quenched duplex DNA oligonucleotides, measured as fluorescence at 594 nm.
Test [10] has as its target T4, Single-strand selective monofunctional uracil DNA glycosylase (Homo sapiens) (UniProt Q53HV7).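 Also: enzymatic SMUG1 assay coupled with APE1, reading fluorescence at 594 nm released when a quenched double-stranded DNA oligonucleotide substrate is cleaved and separated.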
T4 sequence (whole entry): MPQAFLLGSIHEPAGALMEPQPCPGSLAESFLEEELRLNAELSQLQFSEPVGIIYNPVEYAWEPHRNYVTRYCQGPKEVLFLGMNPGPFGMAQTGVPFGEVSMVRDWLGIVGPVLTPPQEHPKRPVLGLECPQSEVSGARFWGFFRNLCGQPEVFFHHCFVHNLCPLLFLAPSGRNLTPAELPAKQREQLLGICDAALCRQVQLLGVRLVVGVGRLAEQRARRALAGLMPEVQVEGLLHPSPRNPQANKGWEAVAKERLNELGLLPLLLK
Description: Inhibition of SMUG1 by quantifying inhibition of SMUG1-mediated cleavage and dissociation of quenched duplex DNA oligonucleotides, measured as fluorescence at 594 nm. To generate a functional strand incision and increase turn-over this assay is coupled to APE1.

Sequence of Uracil-DNA glycosylase (Homo sapiens) (P13051 whole entry): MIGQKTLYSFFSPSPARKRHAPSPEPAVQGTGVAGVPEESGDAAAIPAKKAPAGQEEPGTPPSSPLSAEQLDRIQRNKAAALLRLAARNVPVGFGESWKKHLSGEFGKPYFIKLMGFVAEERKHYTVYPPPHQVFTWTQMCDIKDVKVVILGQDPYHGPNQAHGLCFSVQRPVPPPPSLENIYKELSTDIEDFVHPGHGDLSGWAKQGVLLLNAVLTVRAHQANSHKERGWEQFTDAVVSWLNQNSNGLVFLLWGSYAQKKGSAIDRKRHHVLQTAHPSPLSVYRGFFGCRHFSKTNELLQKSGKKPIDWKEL
Sequence of Methyl-CpG-binding domain protein 4 (Homo sapiens) (O95243 whole entry, the tested form may be a part): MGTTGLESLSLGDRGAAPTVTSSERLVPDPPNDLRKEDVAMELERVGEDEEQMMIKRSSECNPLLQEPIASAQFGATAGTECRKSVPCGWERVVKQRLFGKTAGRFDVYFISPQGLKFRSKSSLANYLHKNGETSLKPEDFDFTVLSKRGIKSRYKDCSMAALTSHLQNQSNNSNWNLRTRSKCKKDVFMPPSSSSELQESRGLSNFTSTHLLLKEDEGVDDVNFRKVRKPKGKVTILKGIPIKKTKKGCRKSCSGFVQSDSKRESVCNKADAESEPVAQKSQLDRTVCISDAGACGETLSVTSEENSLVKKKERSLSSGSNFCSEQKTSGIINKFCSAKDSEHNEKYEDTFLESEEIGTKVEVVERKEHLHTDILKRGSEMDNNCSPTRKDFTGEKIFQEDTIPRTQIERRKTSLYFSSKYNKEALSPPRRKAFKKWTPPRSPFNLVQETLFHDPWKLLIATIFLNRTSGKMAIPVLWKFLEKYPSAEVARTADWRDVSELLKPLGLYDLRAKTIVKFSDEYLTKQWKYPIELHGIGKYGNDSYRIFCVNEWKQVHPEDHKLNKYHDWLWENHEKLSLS

Regarding `O=C(O)COc1cccc(-c2ocnc2-c2nc(-c3ccccc3)c(-c3ccccc3)o2)c1`, the inhibition (in general, the drop in the measured response relative to a control, in per cent) in [1] was -2.35%; in test [2], -0.35%; in test [3], 8.82%; in [4] it was 65%; in [5], 20.4%; in test [6], 51%. The inhibition is 49.9% in [7], 18.4% in [8], 1.64% in test [9] and -6.12% in [10].

Regarding `O=C(NCC12CC3CC(CC(C3)C1)C2)c1ccccc1Cl`, the inhibition in test [1] is -0.487%; in [2], -6.46%; in [3] it was 1.39%; in [4], 21.2%; in test [5], 21.7%; in [6], 10.4%. The inhibition in test [7] was 30.1%; in test [8], -1.14%; in test [9] it was 11.9%; in test [10] it was -1.71%.
